What all share (type): functional
Conditions in all cases: read-out: ED50 (the source's name)

One assay deals with A549. Put plainly: Cytotoxicity against human A549 cells.
The test system of a further assay is SK-OV-3. As to the kind of experiment: Cytotoxicity against human SKOV3 cells.
The next assay deals with SK-MEL-2. As to the kind of experiment: Cytotoxicity against human SK-MEL-2 cells.
The next assay deals with HCT-15. Put plainly: Cytotoxicity against human HCT15 cells.
A further assay relates to XF498. Put plainly: Cytotoxicity against human XF498 cells.

Converted amounts (≈) assume the structure as drawn.

For the compound `CCCCCCCCCCC/C=C/C[C@@H](OS(=O)(=O)O)[C@@H](O)[C@@H](N)CO`, the EC50 in the assay with A549 turned out to be 9.9 µg/mL (≈ 25 µM); with SK-OV-3, 8.2 µg/mL (≈ 20.7 µM); with SK-MEL-2, 4 µg/mL (≈ 10.1 µM); in the assay on HCT-15, 3.7 µg/mL (≈ 9.35 µM); in the assay with XF498, 4.6 µg/mL (≈ 11.6 µM).
As to `CCCCCCCCCC/C=C/C[C@@H](OS(=O)(=O)O)[C@@H](O)[C@@H](N)CO`, the EC50 with A549, in the assay on SK-OV-3, with SK-MEL-2, in the assay on HCT-15 and in the assay with XF498 was 0.3 µg/mL (≈ 0.786 µM) throughout.

(Values after ChEMBL document CHEMBL1150606, “Cytotoxic sphingosine 4-sulfates from the sponge Spirastrella abata” (2002).)
